Like-named read-outs stand apart in the source and are kept apart here.
Key:
[1] = tested on: Plasmodium falciparum 3D7-A10 parasites; experiment: Stage specificity assay (8-h exposure of synchronized stages, IC50^8h); format: cell-based; conditions: for IC50: Plasmodium falciparum
[2] = tested on: asynchronous 3D7-A10 parasite cultures; experiment: Standard 72-h exposure asexual blood stage susceptibility assay (IC50^72h); format: cell-based, Plasmodium falciparum; conditions: Plasmodium falciparum, 3D7, 72 h, read-out: Overall (72hr assay) Mean IC50 (IC50^72h)
[3] = tested on: 3D7-MR4 trophozoite parasite-infected RBCs; experiment: Metabolomic profiling (hydrophilic metabolite changes, UHPLC-MS); format: cell-based, Plasmodium falciparum
[4] = tested on: 3D7-A10 or Dd2-B2 parasites; conditions: 3 × IC50^72h drug concentrations; ref Phillips et al., 2015; cited from earlier work

O=C1C(O)=C([C@H]2CC[C@H](c3ccc(Cl)cc3)CC2)C(=O)c2ccccc21 [Atovaquone, reference compound]
overall activity profile (stages on which active) ([1]; 8-h exposures): activity against late trophozoites only | killing in stage specificity assay ([1]; 8-h exposures, survival curves): incomplete killing | IC50 ([1]; 3D7, read-out: Early rings Mean IC50, shift 2): 553 nM | IC50 ([1]; 3D7, read-out: Early trophozoites Mean IC50, shift 1): 0.68 nM | IC50 ([1]; 3D7, read-out: Early trophozoites Mean IC50, shift 2): 619 nM | IC50 ([1]; 3D7, read-out: Late rings Mean IC50, shift 2): 324 nM | IC50 ([1]; 3D7, read-out: Late trophozoites Mean IC50, shift 1): 3.7 nM | IC50 ([1]; 3D7, read-out: Schizonts IC50, shift 2): > 25000 nM | IC50 ([1]; 3D7, read-out: Schizonts Mean IC50, shift 1): 7.4 nM | shape of survival curve ([1]; early trophozoite and schizont stages): biphasic survival curve | Stage of peak activity (Figure 6) ([1]; period when the parasite was most susceptible (lowest IC50^8h)): late trophozoite stages | Peak Activity (Table S1) ([1]; stage(s) with the lowest IC50^8h): Late Trophs | IC50 [2]: 1.1 nM | Log2(fold change) Myristoyl/tetradecanoyl-CoA [3]: -0.0411 | Log2(fold change) Octoluse 8/1P [3]: 0.0910 | Log2(fold change) succinate/Methylmalonic acid [3]: -0.8517 | Log2(fold change) succinyl-CoA/methylmalonyl-CoA [3]: -0.2938 | Log2(fold change) threonine/homoserine [3]: 0.0177 | metabolic signature: increases in the pyrimidine precursors dihydroorotate and N-carbamoyl-L-aspartate (mETC disruption) ([3]; 10 × IC50^72h, 2.5 hr, trophozoites): observed | Log2(fold changes) 3-phosphoglycerate ([3]; metabolite 3-phosphoglycerate, log2 fold change): -0.1329 | Log2(fold changes) 4-Pyridoxic acid ([3]; metabolite 4-Pyridoxic acid, log2 fold change): 0.0014 | Log2(fold changes) 4-aminobutyrate ([3]; metabolite 4-aminobutyrate, log2 fold change): 0.1923 | Log2(fold changes) 4-phosphopantetheine ([3]; metabolite 4-phosphopantetheine, log2 fold change): 0.0048 | Log2(fold changes) 4-phosphopantothenate ([3]; metabolite 4-phosphopantothenate, log2 fold change): -0.3512 | Log2(fold changes) 5-aminopentanoic acid ([3]; metabolite 5-aminopentanoic acid, log2 fold change): -0.0149 | Log2(fold changes) 5-methyl-THF ([3]; metabolite 5-methyl-THF, log2 fold change): -0.0146 | Log2(fold changes) 5-phosphoribosyl-1-pyrophosphate ([3]; metabolite 5-phosphoribosyl-1-pyrophosphate, log2 fold change): -0.1198 | Log2(fold changes) 6-phospho-D-gluconate ([3]; metabolite 6-phospho-D-gluconate, log2 fold change): 0.0051 | Log2(fold change) HVDD ([3]; metabolite HVDD): 0.0262 | Log2(fold change) Hydroxyisocaproic acid ([3]; metabolite Hydroxyisocaproic acid): -0.0150 | Log2(fold change) IDP ([3]; metabolite IDP): 0.0185 | Log2(fold change) IMP ([3]; metabolite IMP): 0.1599 | Log2(fold change) Inositol ([3]; metabolite Inositol): 0.0000 | Log2(fold change) Isopentyl-PP ([3]; metabolite Isopentyl-PP): -0.0191 | Log2(fold change) L-arginino-succinate ([3]; metabolite L-arginino-succinate): 0.1909 | Log2(fold change) LD ([3]; metabolite LD): 0.1960 | Log2(fold change) N-Acetyl-L-alanine ([3]; metabolite N-Acetyl-L-alanine): -0.3227 | Log2(fold change) N-acetyl-L-ornithine ([3]; metabolite N-acetyl-L-ornithine): 0.1921 | Log2(fold change) N-acetyl-glucosamine-1/6-phosphate ([3]; metabolite N-acetyl-glucosamine-1/6-phosphate): 0.3531 | Log2(fold change) N-acetyl-glutamate ([3]; metabolite N-acetyl-glutamate): 0.0422 | Log2(fold change) N-acetyl-glutamine ([3]; metabolite N-acetyl-glutamine): -0.1228 | Log2(fold change) N-carbamoyl-L-aspartate ([3]; metabolite N-carbamoyl-L-aspartate): 2.7565 | Log2(fold change) NAD+ ([3]; metabolite NAD+): -0.0365 | Log2(fold change) NADH ([3]; metabolite NADH): -0.0409 | Log2(fold change) NADP+ ([3]; metabolite NADP+): 0.1141 | Log2(fold change) NADPH ([3]; metabolite NADPH): -0.0085 | Log2(fold change) O-acetyl-L-serine ([3]; metabolite O-acetyl-L-serine): 0.0000 | Log2(fold change) Octoluse Bisphosphate ([3]; metabolite Octoluse Bisphosphate): -0.0867 | Log2(fold change) PD ([3]; metabolite PD): 0.2066 | Log2(fold change) PE ([3]; metabolite PE): 0.2833 | Log2(fold change) PEE ([3]; metabolite PEE): 0.1525 | Log2(fold change) PEEK ([3]; metabolite PEEK): 0.2544 | Log2(fold change) PVNF ([3]; metabolite PVNF): -0.1256 | Log2(fold change) Pyroglutamic acid ([3]; metabolite Pyroglutamic acid): -0.4514 | Log2(fold change) Pyrophosphate ([3]; metabolite Pyrophosphate): -0.0311 | Log2(fold change) Ribose-5-phosphate ([3]; metabolite Ribose-5-phosphate): -0.0776 | Log2(fold change) S-adenosyl-L-homocysteine ([3]; metabolite S-adenosyl-L-homocysteine): -0.0546 | Log2(fold change) S-adenosyl-L-methioninamine ([3]; metabolite S-adenosyl-L-methioninamine): 0.0342 | Log2(fold change) S-adenosyl-L-methionine ([3]; metabolite S-adenosyl-L-methionine): 0.0000 | Log2(fold change) S-methyl-5'-thioadenosine ([3]; metabolite S-methyl-5'-thioadenosine): 0.1207 | Log2(fold change) SD ([3]; metabolite SD): 0.1611 | Log2(fold change) SDL ([3]; metabolite SDL): 0.0455 | Log2(fold change) SID ([3]; metabolite SID): 0.0448 | Log2(fold change) Sedoheptulose bisphosphate ([3]; metabolite Sedoheptulose bisphosphate): -0.0991 | Log2(fold change) Thiamine pyrophosphate ([3]; metabolite Thiamine pyrophosphate): 0.0203 | Log2(fold changes) UDP-D-glucose ([3]; metabolite UDP-D-glucose, log2 fold change): 0.0102 | Log2(fold changes) UDP-D-glucuronate ([3]; metabolite UDP-D-glucuronate, log2 fold change): -0.0044 | Log2(fold changes) UDP-N-acetyl-glucosamine ([3]; metabolite UDP-N-acetyl-glucosamine, log2 fold change): -0.2854 | Log2(fold changes) UDP ([3]; metabolite UDP, log2 fold change): -1.0636 | Log2(fold changes) UMP ([3]; metabolite UMP, log2 fold change): -0.5975 | Log2(fold changes) UTP ([3]; metabolite UTP, log2 fold change): -1.2395 | Log2(fold change) hydroxyphenylpyruvate ([3]; metabolite hydroxyphenylpyruvate): 0.0147 | Log2(fold change) hydroxyproline/Aminolevulinate ([3]; metabolite hydroxyproline/Aminolevulinate): -0.0689 | Log2(fold change) hypoxanthine ([3]; metabolite hypoxanthine): -0.2575 | Log2(fold change) indole ([3]; metabolite indole): -0.1736 | Log2(fold change) inosine ([3]; metabolite inosine): -0.1123 | Log2(fold change) isoleucine ([3]; metabolite isoleucine): -0.2949 | Log2(fold change) lactate ([3]; metabolite lactate): -0.5142 | Log2(fold change) leucine ([3]; metabolite leucine): -0.2842 | Log2(fold change) lysine ([3]; metabolite lysine): 0.3188 | Log2(fold change) malate ([3]; metabolite malate): -0.2336 | Log2(fold change) maleic acid ([3]; metabolite maleic acid): -0.1204 | Log2(fold change) methionine ([3]; metabolite methionine): -0.2848 | Log2(fold change) myo-inositol ([3]; metabolite myo-inositol): -0.2098 | Log2(fold change) nicotinamide mononucleotide ([3]; metabolite nicotinamide mononucleotide): -0.0768 | Log2(fold change) nicotinate ([3]; metabolite nicotinate): -0.1572 | Log2(fold change) ornithine ([3]; metabolite ornithine): 0.0045 | Log2(fold change) orotate ([3]; metabolite orotate): 0.1233 | Log2(fold change) orotidine-5'-phosphate ([3]; metabolite orotidine-5'-phosphate): -0.3697 | Log2(fold change) oxaloacetate ([3]; metabolite oxaloacetate): -0.0126 | Log2(fold change) p-aminobenzoate ([3]; metabolite p-aminobenzoate): -0.0050 | Log2(fold change) p-hydroxybenzoate ([3]; metabolite p-hydroxybenzoate): 0.0562 | Log2(fold change) pantothenate ([3]; metabolite pantothenate): -0.2044 | Log2(fold change) phenylalanine ([3]; metabolite phenylalanine): -0.3684 | Log2(fold change) phenylpyruvate ([3]; metabolite phenylpyruvate): 0.0000 | Log2(fold change) phosphoenolpyruvate ([3]; metabolite phosphoenolpyruvate): -0.0614 | Log2(fold change) prephenate ([3]; metabolite prephenate): -0.0378 | Log2(fold change) proline ([3]; metabolite proline): -0.1933 | Log2(fold change) pyridoxine ([3]; metabolite pyridoxine): -0.3758 | Log2(fold change) pyruvate ([3]; metabolite pyruvate): -0.8812 | Log2(fold change) riboflavin ([3]; metabolite riboflavin): -0.0986 | Log2(fold change) ribose ([3]; metabolite ribose): -0.0745 | Log2(fold change) ribose-phosphate ([3]; metabolite ribose-phosphate): -0.1162 | Log2(fold change) ribulose-5-phosphate ([3]; metabolite ribulose-5-phosphate): -0.1031 | Log2(fold change) serine ([3]; metabolite serine): 0.0478 | Log2(fold change) sn-glycerol-3-phosphate ([3]; metabolite sn-glycerol-3-phosphate): 0.1848 | Log2(fold change) taurine ([3]; metabolite taurine): 0.0315 | Log2(fold change) thiamine ([3]; metabolite thiamine): -0.0450 | Log2(fold change) thymidine ([3]; metabolite thymidine): -0.1873 | Log2(fold changes) thymine ([3]; metabolite thymine, log2 fold change): 0.0000 | Log2(fold changes) trehalose-6-Phosphate ([3]; metabolite trehalose-6-Phosphate, log2 fold change): 0.0905 | Log2(fold changes) tryptophan ([3]; metabolite tryptophan, log2 fold change): -0.2480 | Log2(fold changes) tyrosine ([3]; metabolite tyrosine, log2 fold change): -0.2052 | Log2(fold changes) uridine ([3]; metabolite uridine, log2 fold change): -0.2906 | minimum inoculum for resistance [4]: 2 × 10^7 parasites

From publication PMC7031696 (Cell chemical biology, 2019)
